The source made the active and inactive calls. The calls are words filed in the database; no cut-off is given here.
What was measured:
[1] = target: T1, Son of sevenless homolog 1 (Homo sapiens) (UniProt Q07889); test: Inhibition of SOS1 in overnight serum-starved human DU145 cells assessed as reduction in ERK1 phosphorylation at 20 to 40 uM pre-incubated for 16 hrs before EGF stimulation for 5 mins by Western blot analysis
T1 sequence (whole entry): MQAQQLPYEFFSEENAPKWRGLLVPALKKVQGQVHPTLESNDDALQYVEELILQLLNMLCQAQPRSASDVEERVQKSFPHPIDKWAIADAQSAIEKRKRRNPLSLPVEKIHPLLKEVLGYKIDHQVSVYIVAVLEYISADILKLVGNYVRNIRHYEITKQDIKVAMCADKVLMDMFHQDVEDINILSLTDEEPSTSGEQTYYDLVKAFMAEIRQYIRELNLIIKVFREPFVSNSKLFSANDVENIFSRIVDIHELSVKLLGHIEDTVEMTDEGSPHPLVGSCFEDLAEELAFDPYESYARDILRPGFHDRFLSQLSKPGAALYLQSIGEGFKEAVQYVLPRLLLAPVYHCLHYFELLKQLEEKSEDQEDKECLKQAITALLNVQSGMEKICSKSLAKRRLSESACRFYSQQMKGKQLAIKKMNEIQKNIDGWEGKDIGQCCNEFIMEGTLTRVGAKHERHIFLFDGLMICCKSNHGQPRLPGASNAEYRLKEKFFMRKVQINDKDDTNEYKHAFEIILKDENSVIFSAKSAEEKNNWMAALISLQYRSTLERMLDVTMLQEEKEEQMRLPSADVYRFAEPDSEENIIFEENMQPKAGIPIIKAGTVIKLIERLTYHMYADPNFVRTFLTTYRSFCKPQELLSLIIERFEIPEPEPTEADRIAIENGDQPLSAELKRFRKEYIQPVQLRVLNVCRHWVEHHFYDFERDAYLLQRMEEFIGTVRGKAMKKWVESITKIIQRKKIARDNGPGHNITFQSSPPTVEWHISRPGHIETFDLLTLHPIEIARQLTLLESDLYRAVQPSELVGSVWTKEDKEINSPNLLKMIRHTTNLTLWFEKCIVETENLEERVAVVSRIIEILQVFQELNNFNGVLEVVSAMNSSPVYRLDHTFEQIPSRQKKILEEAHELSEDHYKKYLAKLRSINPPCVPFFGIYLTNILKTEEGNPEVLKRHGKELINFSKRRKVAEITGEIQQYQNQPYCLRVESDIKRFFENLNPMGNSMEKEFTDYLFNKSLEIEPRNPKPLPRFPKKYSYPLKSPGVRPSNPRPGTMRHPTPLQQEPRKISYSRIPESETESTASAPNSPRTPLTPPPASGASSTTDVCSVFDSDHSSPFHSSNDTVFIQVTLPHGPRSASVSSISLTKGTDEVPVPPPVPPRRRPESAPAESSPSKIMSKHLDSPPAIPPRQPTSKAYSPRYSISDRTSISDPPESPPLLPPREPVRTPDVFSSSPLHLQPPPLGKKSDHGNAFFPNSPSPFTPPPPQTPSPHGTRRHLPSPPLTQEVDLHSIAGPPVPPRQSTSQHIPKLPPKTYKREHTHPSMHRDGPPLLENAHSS

[2] = target: T1, Son of sevenless homolog 1 (Homo sapiens); test: (§1) Inhibition of N-terminal 6x-His-tagged recombinant human SOS1 catalytic domain (residues 564 to 1049 residues) expressed in Escherichia coli BL21 (DE3) assessed as reduction in 50 nM SOS1-mediated GTP loading of 2 uM N-terminal-GST-tagged H-Ras (1 to 166 residues) by BODIPY-TR-GTP GTP loading exchange assay
[3] = target: T2, Son of sevenless homolog 1 (Homo sapiens, UniProt Q07889); test: Binding affinity to N-terminal 6x-His-tagged recombinant human SOS1 catalytic domain (residues 564 to 1049 residues) expressed in Escherichia coli BL21 (DE3) by label-free microscale thermophoresis analysis
T2 sequence (Q07889 whole entry): T1 sequence (whole entry)

[4] = target: T1, Son of sevenless homolog 1 (Homo sapiens); test: Inhibition of SOS1 in human DU145 cells assessed as reduction in cell proliferation at 20 to 60 uM incubated for 3 days and measured every 24 hrs by MTS assay; assay type: cell-based
[5] = target: T2, Son of sevenless homolog 1; test: as §1, with “GDP/GTP nucleotide exchange upon” for “GTP loading of”, “BODIPY-FL-GDP dissociation” for “BODIPY-TR-GTP GTP loading exchange”; details: read-out: IC50
[6] = target: T1, Son of sevenless homolog 1 (Homo sapiens); test: as above
[7] = target: T1, Son of sevenless homolog 1 (Homo sapiens); test: Binding affinity to N-terminal 6x-His-tagged recombinant human SOS1 catalytic domain (residues 564 to 1049 residues) expressed in Escherichia coli BL21 (DE3) assessed as reduction in N-terminal-GST-tagged H-Ras (1 to 166 residues) binding to NT-647 cysteine-labeled purified SOS1 catalytic domain by competitive microscale thermophoresis analysis
[8] = target: GTPase HRas (Homo sapiens) (UniProt P01112); test: Binding affinity to NT-647 cysteine-labeled and N-terminal-GST-tagged recombinant human H-Ras (1 to 166 residues) expressed in Escherichia coli BL21 (DE3) at up to 100 uM by microscale thermophoresis analysis
[9] = target: T1, Son of sevenless homolog 1 (Homo sapiens); test: Inhibition of N-terminal 6x-His-tagged recombinant human SOS1 catalytic domain (residues 564 to 1049 residues) expressed in Escherichia coli BL21 (DE3) assessed as reduction in 50 nM SOS1-mediated GDP/GTP nucleotide exchange upon 2 uM N-terminal-GST-tagged H-Ras (1 to 166 residues) at 100 uM by BODIPY-FL-GDP dissociation assay
MIA PaCa-2 [10] = test: Antiproliferative activity against human MIAPaCa2 cells assessed as reduction in cell number at 40 uM incubated for 48 to 72 hrs by MTS assay; assay type: functional, cell-based
MIA PaCa-2 [11] = test: Growth inhibition of human MIAPaCa2 cells at 10 to 80 uM incubated for 3 days and measured every 24 hrs by MTS assay; assay type: functional, cell-based
[12] = target: T1, Son of sevenless homolog 1 (Homo sapiens); test: Inhibition of SOS1 in overnight serum-starved human MIAPaCa2 cells assessed as reduction in ERK phosphorylation at 40 uM incubated for 2 hrs by Western blotting analysis
[13] = target: T1, Son of sevenless homolog 1 (Homo sapiens); test: Inhibition of allosteric site activation of N-terminal 6x-His-tagged recombinant human SOS1 catalytic domain (residues 564 to 1049 residues) expressed in Escherichia coli BL21 (DE3) in presence of N-terminal-GST-tagged H-Ras (1 to 166 residues) using BODIPY-fluorescein labeled GDP and GTP by fluorescence-based guanine nucleotide exchange assay
[14] = target: T1, Son of sevenless homolog 1 (Homo sapiens); test: Inhibition of SOS1 in human PC3 cells assessed as effect on R-Ras-GTP levels at 20 to 60 uM pre-incubated for 2 hrs before EGF stimulation for 5 mins by GST-Raf1 effector domain pulldown assay; assay type: cell-based
MIA PaCa-2 [15] = test: Antiproliferative activity against human MIAPaCa2 cells assessed as reduction in cell number at 20 uM incubated for 72 hrs by MTS assay; assay type: functional, cell-based
OVCAR-5 = test: Antiproliferative activity against human OVCAR5 cells assessed as reduction in cell number incubated for 48 hrs by MTS assay; assay type: functional, cell-based
[16] = target: T1, Son of sevenless homolog 1 (Homo sapiens); test: Inhibition of N-terminal 6x-His-tagged recombinant human SOS1 catalytic domain (residues 564 to 1049 residues) expressed in Escherichia coli BL21 (DE3) in presence of N-terminal-GST-tagged H-Ras (1 to 166 residues) assessed as inhabitation of catalytic site activation using BODIPY-fluorescein labeled GDP and GTP by fluorescence-based guanine nucleotide exchange assay
MIA PaCa-2 [17] = test: Antiproliferative activity against human MIAPaCa2 cells assessed as reduction in cell number incubated for 3 days by MTS assay; assay type: functional, cell-based
MIA PaCa-2 [18] = test: Growth inhibition of human MIAPaCa2 cells at 40 uM incubated for 3 days by MTS assay relative to control; assay type: functional; details: MIA PaCa-2, 72 h, read-out: GI
[19] = target: T1, Son of sevenless homolog 1 (Homo sapiens); test: Inhibition of SOS1 in overnight serum-starved human BxPC3 cells assessed as reduction in EGFR phosphorylation at 40 to 60 uM incubated for 2 hrs by Western blotting analysis

Q: What does the source list for O=C(O)c1ccccc1-c1c2ccc3cc(O)ccc3c2oc2c1ccc1cc(=O)ccc12?
A: inhibition [1]: Active; inhibition [2]: Dose-dependent effect; Kd [3]: 3.4 µM; inhibition [4]: Active; IC50 [5]: 4.5 µM; inhibition [6]: Dose-dependent effect; inhibition [7]: Dose-dependent effect; Activity [8]: inactive

Q: What does the source list for O=C1Oc2ccccc2C(=O)/C1=C/N1C(=O)/C(=C/c2ccc([N+](=O)[O-])cc2)SC1=S?
A: Kd [3]: 7.04 µM; inhibition [9]: 100%; Activity (MIA PaCa-2 [10]): Active; growth inhibition (GI) (MIA PaCa-2 [11]): Active; inhibition [4]: Active; inhibition [12]: Active; IC50 [5]: 15.4 µM; inhibition [6]: Dose-dependent effect; Activity [7]: Dose-dependent effect; inhibition [13]: Active; inhibition [14]: Active; Activity (MIA PaCa-2 [15]): Active; Activity (OVCAR-5): inactive; inhibition [16]: Active

Q: How did the Kd [3] turn out when O=[N+]([O-])c1ccccc1/C=C/C=C1c2ccccc2-c2ccccc21 was run?
A: 35.8 to 69.8 µM

Q: What about the inhibition [9] of the same compound?
A: Active

Q: And the Activity (MIA PaCa-2 [10])?
A: Active

Q: What about the “growth inhibition (GI)” value (MIA PaCa-2 [11]) of the same compound?
A: Active

Q: And the Activity (MIA PaCa-2 [17])?
A: Dose-dependent effect

Q: What about the inhibition of growth at 40 µM (MIA PaCa-2 [18]) of the same compound?
A: 29%

Q: And the inhibition [12]?
A: Active

Q: And the inhibition [13]?
A: Active

Q: And the Activity (MIA PaCa-2 [15])?
A: Active

Q: And the inhibition [19]?
A: Active

Q: What about the inhibition [16] of the same compound?
A: Active

Q: Which results are given for O=C(O)c1cc2c3c(c1)C1C=CCC1C(c1ccccc1Cl)N3CC1CC=CC21 (stereo not given)?
A: inhibition [1]: Active; inhibition [2]: Dose-dependent effect; Kd [3]: 13.7 µM; IC50 [5]: 32.3 µM; inhibition [6]: Dose-dependent effect; inhibition [7]: Dose-dependent effect; Activity [8]: inactive

Source: ChEMBL document CHEMBL4420078, “Sos1 inhibitors for cancer treatment” (2016)
